Test results taken from PubChem BioAssay (NCI).
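Values below derive from 48-hour exposures of cells grown in 96-well plates, with endpoints linearly interpolated between the two concentrations bracketing the appropriate inhibition level. GI50 is the concentration that inhibits growth by half. TGI is the concentration that stops growth completely.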

How the values were obtained:
Assay in all cases: growth of human tumour cells (NCI), 48 h
SNB-19 CNS = system: SNB-19 CNS
HS 578T breast = system: HS 578T breast
A549 NSCLC = system: A549 NSCLC
NCI-H226 lung = system: NCI-H226 lung
OVCAR-3 ovarian = system: OVCAR-3 ovarian
HOP-92 NSCLC = system: HOP-92 NSCLC
NCI-H460 lung = system: NCI-H460 lung
MOLT-4 leukemia = system: MOLT-4 leukemia
SW-620 colon = system: SW-620 colon
LOX IMVI melanoma = system: LOX IMVI melanoma

| Structure (SMILES) | GI50 (SNB-19 CNS) [µM] | TGI (SNB-19 CNS) [µM] | GI50 (HS 578T breast) [µM] | TGI (HS 578T breast) [µM] | GI50 (A549 NSCLC) [µM] | TGI (A549 NSCLC) [µM] | GI50 (NCI-H226 lung) [µM] | TGI (NCI-H226 lung) [µM] | GI50 (OVCAR-3 ovarian) [µM] | TGI (OVCAR-3 ovarian) [µM] | GI50 (HOP-92 NSCLC) [µM] | TGI (HOP-92 NSCLC) [µM] | GI50 (NCI-H460 lung) [µM] | TGI (NCI-H460 lung) [µM] | GI50 (MOLT-4 leukemia) [µM] | TGI (MOLT-4 leukemia) [µM] | GI50 (SW-620 colon) [µM] | TGI (SW-620 colon) [µM] | GI50 (LOX IMVI melanoma) [µM] | TGI (LOX IMVI melanoma) [µM] |
| --- | --- | --- | --- | --- | --- | --- | --- | --- | --- | --- | --- | --- | --- | --- | --- | --- | --- | --- | --- | --- |
| COc1ccc(/C=c2/sc3n(c2=O)C(c2ccc(OC)c(OC)c2)C2=C(N=3)c3cc(F)ccc3OC2)cc1 (stereo not given) | > 53.2 | > 100 | 27 | > 87.5 | 23.6 | > 82 | 9.17 | > 60.2 | 2.54 | 14.1 | 14.3 | > 65 | 19.3 | > 100 | > 22.7 | > 100 | 50.5 | > 100 | 23 | 50.7 |
| NC(N)=N/N=C/c1cc(Cl)cc(Cl)c1O |  | > 100 |  | > 100 |  | > 100 |  | > 100 |  | > 100 |  | > 100 |  | > 100 |  | > 100 |  | > 100 |  | > 100 |
| NC(=O)C(=CNc1nc(-c2ccc(Cl)c(Cl)c2)cs1)C(N)=O | > 100 | > 100 | 26.9 | > 100 | 85.7 | > 100 | > 100 | > 100 | 41.6 | > 100 | > 100 | > 100 | 69.7 | > 100 | 48.7 | > 100 | > 100 | > 100 | > 100 | > 100 |
| Cc1ccc(Nc2nc(N)c(C(=O)c3ccc(C#N)cc3)s2)cc1 | 0.509 | 53.5 | 0.546 | > 100 | 0.739 | > 76.6 | 1.6 | > 93.5 | 0.319 | 5.43 | 0.478 | 32.4 | 0.389 | > 100 | 0.468 | > 100 | 0.336 | > 100 | 0.522 | > 100 |
| COc1cc(/C=C2\C(=O)Nc3ccc(F)cc32)cc(OC)c1OC | 38.4 | > 100 | 30.4 | > 100 | 51.8 | > 100 | 23.7 | > 100 | 22.8 | > 100 | 5.07 | 42.8 | 19.6 | > 100 | 9.26 | > 100 | 63.7 | > 100 | 20.5 | > 100 |
| O=C(O)c1cc(O)c2c(c1)C(C1c3cc(C(=O)O)cc(O)c3C(=O)c3c(OC4OC(CO)C(O)C(O)C4O)cccc31)c1cccc(OC3OC(CO)C(O)C(O)C3O)c1C2=O (stereo not given) | > 100 | > 100 | > 100 | > 100 | > 100 | > 100 | > 100 | > 100 | > 100 | > 100 | > 100 | > 100 | > 100 | > 100 | > 100 | > 100 | > 100 | > 100 | > 100 | > 100 |
| Cc1n(Cc2ccc3ccccc3c2)cc[n+]1Cc1ccc2ccccc2c1 | 0.676 | 3.13 | 1.6 | 11.3 | 3.81 | 21.3 | 1.85 | 10.4 | 0.521 | 2.06 | 0.673 | 3.64 | 1.59 | 10.7 | 1.76 | 5.61 | 1.77 | 11.7 | 0.951 | 2.2 |
| O=C(N/N=C\c1cc(Br)ccc1O)c1ccncc1 | 5.65 | > 100 | 13.4 | > 100 | 4.27 | > 100 | 1.86 | 32.6 | 0.435 | 39.8 | 2.22 | 45.4 | 1.25 | > 100 | 0.551 | 23.5 | 2.66 | > 100 | 1.07 | 94.7 |
| c1ccc2c3ccn4cc5c(cc4c-3nc2c1)CCCC5 | 3.49 | 13.8 | 3.01 | 21.5 | 9.19 | 32.6 | 3.3 | 10.2 | 3.31 | 8.84 | 5.04 | 48.7 | 1.69 | 3.85 | 2.45 | 12.5 |  | 9.85 |  |  |
| CN(C)Cc1c[nH]c2c1C(=O)c1c(c(O)c3ccccc3c1O)C2=O | 8.94 | 43.4 | 10.9 | 26.7 | 7.59 | 20.6 | 17 | 33.3 | 2.44 | 13.9 | 13.6 | 31.7 | 3.54 | 16 | 3.42 | > 100 | 3.37 | 14.6 | 6.32 | 19.5 |
| C#C[C@]1(O)CC[C@H]2[C@@H]3CC=C4c5sc(Nc6ccccc6)nc5CC[C@]4(C)[C@H]3CC[C@@]21C | 1.99 | 7.16 | 0.504 | 5.23 | 3.48 | 24.9 | 2.55 | 7.59 | 1.89 | 5.34 | 3.81 | 29.7 | 2.4 | 6.4 | 0.577 | 12.4 | 2.06 | 5.85 |  |  |
| COC(COC(=O)N1CCN(C=O)CC1)C1=C(N2CC2)C(=O)C(C)=C(N2CC2)C1=O (stereo not given) |  | 13.4 |  | 5.17 |  | 2.71 |  | 3.05 |  | 2.52 |  | 0.919 |  | 0.8 |  | 14.1 |  | 1.59 |  | 0.613 |
| COc1ccc(CNc2c3ccccc3nc3ccccc23)cc1OC | 3.3 | 17.2 | 2.64 | 10.1 | 2.24 | 6.87 | 2.25 | 7.04 | 2.64 | 8.39 | 1.62 | 7.83 | 2.49 | 6.51 | 2.25 | 25.6 | 1.69 | 10.1 | 1.4 | 3.47 |
| COc1ccc(-c2cc(-c3cccn3C)c(C#N)c(N)n2)cc1OC | > 100 | > 100 | > 100 | > 100 | > 100 | > 100 | > 100 | > 100 | > 100 | > 100 | 5.16 | > 100 | > 100 | > 100 | 46.8 | > 100 | > 100 | > 100 | > 100 | > 100 |
| CCN(CC)CC(C)(C)C(=O)/C=C/c1ccc(Cl)c(Cl)c1 | 1.82 | 3.54 | 2.45 | 5.94 | 2.38 | 4.88 | 1.71 | 3.35 | 1.53 | 2.88 | 0.418 | 1.85 | 2.07 | 4.36 | 2.37 | 8.11 | 1.76 | 4.21 | 0.774 | 2.03 |
| O=C(CN(C1CCCCC1)C1CCCCC1)Nc1ccc(S(=O)(=O)c2ccc(NC(=O)CN(C3CCCCC3)C3CCCCC3)cc2)cc1 | 0.656 | 2.18 | 1.03 | 6.9 | 1.33 | 3.26 | 2.06 | 9.43 | 0.279 | 1.02 | 1.39 | 2.93 | 0.382 | 1.63 | 0.293 | 2.7 | 0.228 | 0.65 | 0.239 | 0.845 |
| CCCS(=O)(=O)Nc1ccc(Nc2c3ccccc3nc3ccccc23)c(OC)c1 |  | 8.98 |  | 16.7 |  | 5.99 |  | 13 |  | 7.86 |  | 17.5 |  | 2.6 |  | 0.231 |  | 21.3 |  | 4.9 |
| Cc1c[n+](Cc2ccc3ccccc3c2)cn1Cc1ccc2ccccc2c1 | 1.54 | 3.14 | 2.22 | 6.65 | 5.05 | 18.7 | 2.12 | 5.87 | 1.04 | 2.28 | 0.448 | 2.02 | 1.72 | 3.65 | 1.7 | 4.06 | 1.64 | 3.74 | 1.34 | 2.7 |
| COc1ccccc1/C=C/c1cnccn1 |  | > 10 |  | > 10 |  | > 10 |  | > 10 |  | > 10 |  | > 10 |  | > 10 |  | > 10 |  | > 10 |  | > 10 |
| O=C1c2ccn(CCCCNC(CO)(CO)CO)c2C(=O)c2c1c(O)c1ccccc1c2O | 3.33 | 22.6 | 11.5 | > 75 | 1.86 | 3.96 | 2.81 | 9.35 | 0.183 | 0.388 | 1.89 | 19.6 | 4.57 | 13.8 | 2.27 | 4.2 | 2.02 | 13 |  |  |
| CC(=O)Oc1ccccc1C(=O)N=C1[Se]CCN1C(=O)c1ccccc1OC(C)=O | 1.23 | 4.31 | 0.507 | 3.02 | 0.832 | 2.64 |  |  |  |  | 1.85 | 3.58 | 0.379 | 2.06 | 0.621 | > 100 | 1.52 | 6.09 |  |  |
| CC(=O)c1c(CBr)n([O-])c2ccccc2[n+]1=O | 18.8 | 40 | 17.4 | 48.8 | 23.1 | 57 | 13.4 | 28 | 3.14 | 7.67 | 7.36 | 24 |  |  | 4 | 15.7 | 2.04 | 4.15 | 10.8 | 23 |
| N#CC1Nc2ccccc2[C@@H](O)C1O (stereo not given in full) |  |  |  | > 100 |  | > 100 |  |  |  | > 100 |  | > 100 |  | > 100 |  | > 100 |  | > 100 |  | > 100 |
| COC(=O)[C@@H](NC(=O)[C@@H](OC)[C@@H]1Cc2cc3cc(OC4CC(OC5CC(O)C(O)C(C)O5)C(O)C(C)O4)c(C)c(O)c3c(O)c2C(=O)[C@H]1OC1CC(OC2CC(OC3CC(C)(O)C(O)C(C)O3)C(O)C(C)O2)C(O)C(C)O1)C(C)C (stereo not given in full) | 0.157 | > 32.5 | 0.114 | 1.39 | 0.141 | > 32.5 | 0.109 | 0.963 | 0.165 | > 32.5 | 0.101 | 1.13 | 0.111 | 5.7 | 0.136 | 5.24 | 0.121 | > 32.5 |  |  |
| CSC1(CC(=O)N(C)C)C(=O)Nc2ccccc21 (stereo not given) |  | > 100 |  | > 100 |  | > 100 |  | > 100 |  | > 100 |  |  |  | > 100 |  | > 100 |  | > 100 |  | > 100 |
| O/N=C\c1c(O)ccc2ccccc12 |  | > 100 |  | > 100 |  | > 100 |  | > 100 |  | 66.7 |  | > 100 |  | > 100 |  |  |  | > 100 |  | > 100 |
| O=C(CCCN1CC=C(n2c(=O)[nH]c3ccccc32)CC1)c1ccc(F)cc1 |  |  | 24 | 99.8 | 70.2 | > 100 | 25.5 | > 100 | 31.4 | > 100 | 45.3 | > 100 | 35.2 | > 100 | 30.5 | 91.8 | 53.5 | > 100 | 26 | > 100 |
| Cc1cn2c(/C=C3/C(=O)Nc4ccccc43)c(-c3ccc(Cl)cc3)nc2s1 | 7.01 | 13.5 | 9.26 | 31.9 | 7.52 | 16 | 7.04 | 21.3 | 9.82 | 17.9 |  |  | 8.14 | 22.1 | 16.9 | 47.4 | 15.1 | 38.2 | 5.84 | 12 |
